Results from ChEMBL document CHEMBL3045439, “Isoforms of the heteropteran Nezara viridula ecdysone receptor: protein characterisation, RH5992 insecticide binding and homology modelling” (Pest Manag Sci, 2011).

Legend:
[1] = biological target: T1, Ecdysone receptor (Drosophila melanogaster, UniProt P20153+P34021); assay: Binding affinity to Drosophila melanogaster EcR; assay type: protein-complex assay
T1 sequence (P34021 whole entry): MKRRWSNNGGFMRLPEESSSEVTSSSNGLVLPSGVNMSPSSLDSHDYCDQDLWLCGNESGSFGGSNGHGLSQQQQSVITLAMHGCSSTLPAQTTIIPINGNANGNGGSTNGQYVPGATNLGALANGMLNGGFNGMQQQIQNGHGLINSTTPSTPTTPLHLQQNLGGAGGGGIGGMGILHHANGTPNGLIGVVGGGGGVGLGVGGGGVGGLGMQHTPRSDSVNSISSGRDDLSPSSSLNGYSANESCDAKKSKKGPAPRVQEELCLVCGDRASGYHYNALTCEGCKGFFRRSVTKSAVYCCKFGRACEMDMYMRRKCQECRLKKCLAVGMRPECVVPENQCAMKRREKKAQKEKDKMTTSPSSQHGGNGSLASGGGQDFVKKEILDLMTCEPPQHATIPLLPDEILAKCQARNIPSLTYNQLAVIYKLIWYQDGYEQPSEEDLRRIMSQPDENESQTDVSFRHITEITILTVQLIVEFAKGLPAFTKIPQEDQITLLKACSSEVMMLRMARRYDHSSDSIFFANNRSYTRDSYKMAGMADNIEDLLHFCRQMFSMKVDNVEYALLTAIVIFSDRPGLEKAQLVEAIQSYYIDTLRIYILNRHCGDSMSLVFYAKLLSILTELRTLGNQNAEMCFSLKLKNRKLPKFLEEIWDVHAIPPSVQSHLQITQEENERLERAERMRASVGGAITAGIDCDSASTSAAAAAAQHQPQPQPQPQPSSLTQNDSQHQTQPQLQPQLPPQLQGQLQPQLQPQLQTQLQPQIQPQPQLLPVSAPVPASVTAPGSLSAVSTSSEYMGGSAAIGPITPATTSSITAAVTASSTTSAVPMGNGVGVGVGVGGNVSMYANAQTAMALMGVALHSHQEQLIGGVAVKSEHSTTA
T1 sequence (P20153 whole entry): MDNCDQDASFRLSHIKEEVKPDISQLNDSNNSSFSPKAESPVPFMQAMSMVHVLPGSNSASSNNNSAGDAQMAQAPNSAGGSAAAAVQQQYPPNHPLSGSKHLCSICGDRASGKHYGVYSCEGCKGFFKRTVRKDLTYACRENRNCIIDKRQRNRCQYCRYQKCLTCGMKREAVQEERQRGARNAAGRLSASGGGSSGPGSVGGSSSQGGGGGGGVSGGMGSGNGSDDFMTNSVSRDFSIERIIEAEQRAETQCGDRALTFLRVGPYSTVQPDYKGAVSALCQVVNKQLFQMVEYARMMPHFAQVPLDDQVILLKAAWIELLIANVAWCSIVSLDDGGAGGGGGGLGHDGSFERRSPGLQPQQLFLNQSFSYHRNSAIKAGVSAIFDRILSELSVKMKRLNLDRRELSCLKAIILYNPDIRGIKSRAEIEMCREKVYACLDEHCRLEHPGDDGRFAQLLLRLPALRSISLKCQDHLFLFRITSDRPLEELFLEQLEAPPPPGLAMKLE

[2] = biological target: T2, Ecdysone receptor (Nezara viridula, UniProt E5L6Y0+E5L6Y1); assay: Displacement of [3H]PonA from recombinant Nezara viridula EcR11; assay type: protein-complex assay
T2 sequence (E5L6Y1 whole entry): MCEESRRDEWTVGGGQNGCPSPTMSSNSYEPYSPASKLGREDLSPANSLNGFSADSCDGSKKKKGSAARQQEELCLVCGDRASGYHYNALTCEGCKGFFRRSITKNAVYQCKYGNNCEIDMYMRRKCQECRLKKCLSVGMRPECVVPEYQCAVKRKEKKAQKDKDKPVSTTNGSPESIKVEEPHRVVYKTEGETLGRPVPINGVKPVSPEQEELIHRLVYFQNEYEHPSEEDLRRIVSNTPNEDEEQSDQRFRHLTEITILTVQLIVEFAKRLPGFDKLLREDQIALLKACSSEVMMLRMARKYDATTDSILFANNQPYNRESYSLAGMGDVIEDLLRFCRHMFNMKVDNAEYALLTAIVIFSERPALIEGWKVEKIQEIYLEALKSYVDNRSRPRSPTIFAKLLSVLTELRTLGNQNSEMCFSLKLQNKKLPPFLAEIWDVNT
T2 sequence (E5L6Y0 whole entry): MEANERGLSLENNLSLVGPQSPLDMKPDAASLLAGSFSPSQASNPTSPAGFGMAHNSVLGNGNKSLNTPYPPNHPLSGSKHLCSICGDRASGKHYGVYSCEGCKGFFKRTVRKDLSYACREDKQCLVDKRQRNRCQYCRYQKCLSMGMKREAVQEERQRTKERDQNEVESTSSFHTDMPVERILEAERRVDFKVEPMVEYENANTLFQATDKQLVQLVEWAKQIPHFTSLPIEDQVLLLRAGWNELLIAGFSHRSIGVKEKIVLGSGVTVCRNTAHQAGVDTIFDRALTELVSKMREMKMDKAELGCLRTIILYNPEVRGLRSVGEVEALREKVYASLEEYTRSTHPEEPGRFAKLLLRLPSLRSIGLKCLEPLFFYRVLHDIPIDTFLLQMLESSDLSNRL

IC50 [1] [µM]	Compound	IC50 [2] [µM]	Ki [2] [µM]	Ki [1] [µM]
0.0457	CC(C)(O)CC[C@@H](O)[C@](C)(O)[C@H]1CC[C@@]2(O)C3=CC(=O)[C@@H]4C[C@@H](O)[C@@H](O)C[C@]4(C)[C@H]3CC[C@]12C [20-HYDROXYECDYSONE]	4.5	3	–
–	CCc1ccc(C(=O)NN(C(=O)c2cc(C)cc(C)c2)C(C)(C)C)cc1 [TEBUFENOZIDE]	28	23.9	0.251
